# Measurements reported in US8628961B2, “Small molecule antagonists of phosphatidylinositol-3,4,5-triphosphate (PIP3) and uses thereof” (Tufts University, priority 2010, dated 2014).
# Read-outs that look alike come from different tables or passages of the source.
# Columns and labels:
# Akt PH domain [1] = target: T1, Akt PH domain (Homo sapiens (Human), UniProt P31749); assay: Fluorescence polarization (FP) PIP3/Akt PH domain binding assay; conditions: for IC50: 15 nM TMR-conjugated PIP3, PITs 6.25-200 μM, 30 min; for activity of PIT-1 analogs in vitro: negative controls
# From the text: (§1) In order to identify compounds that disrupt the interaction between PIP3 and PH domains, a high-throughput fluorescence polarization (FP)-binding assay was developed using recombinant 1-123 amino acid N-terminal fragment of human Akt1 (also referred to herein simply as Akt), encompassing the PH domain (PH123 protein), and fluorescent […] PIP3 molecule. The amino acid sequence of human Akt1 is publicly available as, for example, GenBank Accession No. NP_001014432.1 (SEQ ID NO:1), and the corresponding DNA sequence is publicly available as, for example, GenBank Accession No. NM_001014432. Briefly, 5 μM recombinant GST fusion proteins containing 1-123 a.a. N-terminal fragment of human Akt1 (PH 123) or 100 nM 441-551 a.a. region of human PDK1 were incubated with 15 nM TMR-labeled PIP3, PIP2, or PIP5 in buffer containing 50 mM Tris-HCl (pH 7.5), 150 mM NaCl, and 5 mM b-ME for 15 min at room temperature in the dark. FP values were determined using Wallac Victor 3 plate reader. For the primary screen, 50,000 diverse small molecules from Harvard Institute of Chemistry and Cell Biology were screened (iccb.med.harvard.edu). Incubations were carried out for 1 hr. For secondary assays, PIT compounds were added at various concentrations (6.25, 12.5, 25, 50, 100, 150 and 200 μM), followed by a 30 min incubation. The inhibition rates were calculated as inhibition rate=[1−(compound-treated group/control group)]×100%, and IC50 value was determined using Origin6 software (MicroCal, LLC, Northampton, Mass.).
# Target sequence in this assay (P31749 1-123): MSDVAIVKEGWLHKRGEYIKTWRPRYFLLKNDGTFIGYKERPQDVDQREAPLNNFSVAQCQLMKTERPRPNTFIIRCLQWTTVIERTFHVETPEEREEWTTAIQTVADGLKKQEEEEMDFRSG
# PDK1 PH domain = PDK1 PH domain (Homo sapiens (Human), UniProt O15530); assay: FP PIP3/PDK1 PH domain binding assay; conditions: for IC50: 15 nM TMR-conjugated PIP3, 100 nM PDK1 PH domain, 30 min
# Sequence of PDK1 PH domain (O15530 441-551): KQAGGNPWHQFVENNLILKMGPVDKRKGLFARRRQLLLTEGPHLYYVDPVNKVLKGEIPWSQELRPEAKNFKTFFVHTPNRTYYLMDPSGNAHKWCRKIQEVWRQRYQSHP
# From the text: as §1
# GRP1 PH domain = GRP1 PH domain (Homo sapiens, UniProt O43739); assay: FP PIP3/GRP1 PH domain binding assay; conditions: 15 nM TMR-conjugated PIP3, 100 nM GRP1 PH domain, 30 min
# U87MG cells = assay: cells; assay type: cell-based; conditions: for IC50: U87MG cells, 48 hr, ATP assay, read-out: Cell Viability IC50
# Procedure: (§2) Based on the critical role of PIP3-dependent […] signaling in the regulation of cell survival, the effect of PIT-1 on the cancer cell viability was tested. Cancer cells were seeded into 96-well plates (white plates for ATP assay; black plates for fluorescent assay; clear plates for MTS assay) at the density of 5-10×10^3 cells per well in 100 μl of the appropriate media. Compounds were added at a series of concentrations and incubated for different times. For the ATP assay, a luminescence-based commercial kit (CellTiter-Glo, Promega, Madison, Wis.) was used. Thirty microliters of cell lysis/ATP detection reagent was added to each well, mixed for 10 min at room temperature, and the luminescence was measured using a Wallac Victor 3 plate reader (Perkin-Elmer, Wellesley, Mass.). For the MTS assay, a CellTiter 96 AQueous Non-Radioactive Cell Proliferation Assay Kit (Promega, Madison, Wis., USA) was used. Twenty microliters of the combined MTS/PMS solution was added into each well, incubated for 4 hr at 37° C., and the absorbance at 490 nm was measured using a Wallac Victor 3 plate reader. For the Sytox cell death assay, measuring loss of plasma membrane integrity, cells were incubated with 1 μM Sytox Green reagent (Molecular Probes, Eugene, Oreg.) for 30 min at 37° C. and the fluorescence intensity was measured using Wallac Victor 3 plate reader with excitation at 485 nm and emission at 545 nm. Next, 5 μl of 20% (v/v) Triton X-100 solution was added to each well and incubated for 1 hr at 37° C., and the signal was measured again. The ratio of values (percentage of dead cells in each well) before and after Triton X-100 treatment was calculated and normalized to the relevant controls not subjected to the cytotoxic stimuli. IC50 values were determined using Origin6 software (MicroCal, LLC, Northampton, Mass.).
# To measure induction of cell death by PIT-1 derivatives, U87MG cells were incubated with PITs (1.56-300 μM) for 48 hr. Cell viability was determined using ATP assay.
# Akt PH domain [2] = target: T1, Akt PH domain; assay: PH domain translocation assay (GFP fusion, plasma membrane); assay type: cell-based; conditions: PDGF stimulation
# Procedure: (§3) Cells were transfected with the corresponding GFP-fusion vectors, serum starved overnight, and incubated with 100 μM PITs or PIT-1 is for 2 hr, followed by stimulation with 100 ng/ml PDGF or 250 ng/ml PMA for 5 min. The translocation was analyzed using fluorescent microscope and was quantitated by counting the number of cells with translocated PH domains in five random fields.
# To begin characterizing cellular activity of PITs, a PH domain translocation assay was performed, measuring PIP3-induced association of GFP-fused PH domains with the plasma membrane. […] Varnai P et al. (1999) J Biol Chem 274:10983-9. Several PH-domain-containing proteins, which are known to bind PIP3 specifically and efficiently, were examined. […] Oikawa T et al. (2004) Nat Cell Biol 6:420-6.
# Target sequence in this assay (P31749 5-108): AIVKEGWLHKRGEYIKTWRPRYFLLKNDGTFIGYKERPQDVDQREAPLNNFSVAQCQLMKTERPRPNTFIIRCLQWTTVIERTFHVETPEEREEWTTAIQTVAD
# Btk PH domain = Btk PH domain (Homo sapiens (Human), UniProt Q06187); assay: as above; assay type: cell-based; conditions: PDGF stimulation
# Sequence of Btk PH domain (Q06187 3-133): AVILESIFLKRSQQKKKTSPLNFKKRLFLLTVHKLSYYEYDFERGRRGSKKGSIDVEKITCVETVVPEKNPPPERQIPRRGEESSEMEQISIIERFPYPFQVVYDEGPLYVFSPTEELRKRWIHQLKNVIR
# Procedure: as §3
# To begin characterizing cellular activity of PITs, a PH domain translocation assay was performed, measuring PIP3-induced association of GFP-fused PH domains with the plasma membrane. This method provides useful means for monitoring status of the PH domain/PIP3 binding in the intact cells. Varnai P et al. (1999) J Biol Chem 274:10983-9. Several PH-domain-containing proteins, which are known to bind PIP3 specifically and efficiently, were examined. […] Oikawa T et al. (2004) Nat Cell Biol 6:420-6.
# [3] = system: multiple cancer cell lines; assay: Cancer cell viability, MTS or ATP assays; assay type: cell-based; conditions: dose- and time-dependent
# Procedure: as §2
# [4] = system: SUM159 cells transfected with VAV2 or WAVE2; assay: Wound migration of VAV- or WAVE-overexpressing cells; assay type: cell-based, human; conditions: PDGF, 8 hr
# Procedure: SUM159 cells were transfected with VAV2 or WAVE2. Scratch wound was generated in cell monolayer, followed by treatment with PIT-1 (100 μM) in the presence of PDGF (100 ng/ml) stimulation for 8 hr. The inhibitory effect of PITs on VAV- or WAVE-induced cell migration was calculated according to the width of wound. The width of wounded cell monolayers was measured in five random fields.
Structure (SMILES),IC50 (Akt PH domain [1]) [µM],activity of PIT-1 analogs in vitro (Akt PH domain [1]),IC50 (PDK1 PH domain) [µM],IC50 (GRP1 PH domain) [µM],IC50 (U87MG cells) [µM],plasma membrane translocation of Akt PH domain (Akt PH domain [2]),plasma membrane translocation of Btk PH domain (Btk PH domain),viability of multiple cancer cell lines [3],inhibition of migration in VAV- and WAVE-overexpressing cells compared to control cells [4],inhibition of binding of PIP3 to the PH domain of PDK1 (PDK1 PH domain; FIG. 4),killing of U87MG cells compared with LY294002 (U87MG cells),"IC50 (U87MG cells; Homo sapiens, U-87 MG) [µM]"
COc1c(Cl)cc([N+](=O)[O-])cc1NC(=S)NC(=O)c1ccccc1 [PIT-1i-2],> 200,inactive analogs,> 200,> 200,> 200,inactive,inactive,did not induce loss of viability,lacked activity,,,
O=C(NC(=S)Nc1cc([N+](=O)[O-])cc(Cl)c1O)c1ccccc1 [PIT-1],31 ± 2.5,,66.7 ± 3.5,40.3 ± 2.8,,significantly inhibited the translocation,significantly inhibited the translocation,reduced viability of multiple cancer cell lines,larger degree of inhibition of cell migration,inhibited binding of PIP3 to the PH domain of PDK1,more pronounced than that by the PI3K inhibitor LY294002,39.9 ± 3.2
"O=C(NC(=O)c1ccccc1)Nc1cc([N+](=O)[O-])cc(Cl)c1O [PIT-1i-1, reference compound]",> 200,inactive analogs,> 200,> 200,> 200,inactive,inactive,did not induce loss of viability,lacked activity,,,
